≈ marks a conversion by molar mass, not a printed value. Where two headings read alike, the source gives them in different places.
Key:
[1] = tested on: quinolone resistant E. coli LZ3111; test: Antibacterial activity, MIC, quinolone resistant E. coli LZ3111; type: cell-based, Escherichia coli; conditions: Escherichia coli, read-out: MIC, LZ3111
Description: (§1) The antibacterial activity from a microbroth dilution method may be presented as the minimum inhibitory concentration (MIC in […]). The MIC value is the lowest concentration of a drug which prevents macroscopically visible bacterial growth under test conditions.
Mutations in these regions are known to confer a high level resistance to the quinolone class of antibiotics.

[2] = tested on: super sensitive Gram-negative Escherichia coli (E. coli) BAS849; test: Antibacterial activity, microbroth dilution MIC, E. coli BAS849; type: cell-based; conditions: Escherichia coli, read-out: MIC, BAS849
[3] = tested on: Pseudomonas aeruginosa (P. aeruginosa) 27853; test: Antibacterial activity, MIC, P. aeruginosa 27853; type: cell-based; conditions: Pseudomonas aeruginosa, P. aeruginosa 27853; read-out: MIC 27853
Description: as §1
Antibacterial activity of test compounds against the Gram-negative bacterium Pseudomonas aeruginosa (P. aeruginosa) 27853 is shown in Table 5.

[4] = tested on: control Gram-negative E. coli 25922 strain; test: Antibacterial activity, microbroth dilution MIC, E. coli 25922; type: cell-based, Escherichia coli; conditions: Escherichia coli; E. coli 25922, microbroth dilution; read-out: MIC, 25922
[5] = tested on: Gram-positive Staphylococcus aureus (S. aureus) 29213; test: Antibacterial activity, microbroth dilution MIC, S. aureus 29213; type: cell-based; conditions: Staphylococcus aureus; S. aureus 29213, microbroth dilution; read-out: MIC, 29213
[6] = tested on: E. coli ELZ4000 (MDR clinical isolate); test: Antibacterial activity, MIC, MDR E. coli ELZ4000; type: cell-based, Escherichia coli; conditions: Escherichia coli; E. coli ELZ4000, MDR clinical isolate; read-out: MIC ELZ4000
[7] = tested on: E. coli ELZ4251 (MDR clinical isolate); test: Antibacterial activity, MIC, MDR E. coli ELZ4251; type: cell-based, Escherichia coli; conditions: Escherichia coli, E. coli ELZ4251, MDR clinical isolate; read-out: MIC ELZ4251
[8] = E. coli BAS849, microbroth dilution

SMILES | MIC [1] | MIC [2, 8] | MIC [3] | MIC [4] | MIC [5] | MIC [6] | MIC [7] | MIC [2]
CCc1cc(C(=O)O)c(=O)[nH]c1-c1ccc(N2CC[C@H](F)C2)cc1 [Cpd 153, 5-ethyl-6-{4-[(3S)-3-fluoropyrrolidin-1-yl]phenyl}-2-oxo-1,2-dihydropyridine-3-carboxylic acid] | 12.5 to 150 µg/mL (≈ 37.8 to 454 µM) | < 1 µg/mL | 3.5 to 12.5 µg/mL (≈ 10.6 to 37.8 µM) | < 1 µg/mL | 1 to 3.5 µg/mL (≈ 3.03 to 10.6 µM) | 12.5 to 150 µg/mL (≈ 37.8 to 454 µM) | 12.5 to 150 µg/mL (≈ 37.8 to 454 µM) | –
CCc1c(-c2ccc(N3CC(N)C4(CC4)C3)cc2)[nH]c(=O)c(C(=O)O)c1O.O=C(O)C(F)(F)F (stereo not drawn) [Cpd 252, 6-[4-(7-amino-5-azaspiro[2.4]hept-5-yl)phenyl]-5-ethyl-4-hydroxy-2-oxo-1,2-dihydropyridine-3-carboxylic acid trifluoroacetate] | 3.5 to 12.5 µg/mL | – | 12.5 to 150 µg/mL | 1 to 3.5 µg/mL | 12.5 to 150 µg/mL | 12.5 to 150 µg/mL | 12.5 to 150 µg/mL | < 1 µg/mL
CCc1cc(C(=O)O)c(=O)[nH]c1-c1ccc(N2CC=CC2)cc1 [Cpd 301, 6-[4-(2,5-dihydro-1H-pyrrol-1-yl)phenyl]-5-ethyl-2-oxo-1,2-dihydropyridine-3-carboxylic acid] | 12.5 to 150 µg/mL (≈ 40.3 to 483 µM) | < 1 µg/mL | 3.5 to 12.5 µg/mL (≈ 11.3 to 40.3 µM) | < 1 µg/mL | < 1 µg/mL | 12.5 to 150 µg/mL (≈ 40.3 to 483 µM) | 12.5 to 150 µg/mL (≈ 40.3 to 483 µM) | –
CCc1c(-c2ccc(N3CCC(C)(CN)C3)cc2)[nH]c(=O)c(C(=O)O)c1O (stereo not drawn) [Cpd 290, 6-{4-[3-(aminomethyl)-3-methylpyrrolidin-1-yl]phenyl}-5-ethyl-4-hydroxy-2-oxo-1,2-dihydropyridine-3-carboxylic acid] | 3.5 to 12.5 µg/mL (≈ 9.42 to 33.7 µM) | < 1 µg/mL | 12.5 to 150 µg/mL (≈ 33.7 to 404 µM) | 1 to 3.5 µg/mL (≈ 2.69 to 9.42 µM) | 12.5 to 150 µg/mL (≈ 33.7 to 404 µM) | 12.5 to 150 µg/mL (≈ 33.7 to 404 µM) | 3.5 to 12.5 µg/mL (≈ 9.42 to 33.7 µM) | –
CCc1cc(C(=O)O)c(=O)[nH]c1-c1ccc(N2CCC(NCc3ccccc3)C2)cc1.Cl (stereo not drawn) [Cpd 174, 6-{4-[3-(benzylamino)pyrrolidin-1-yl]phenyl}-5-ethyl-2-oxo-1,2-dihydropyridine-3-carboxylic acid hydrochloride] | 12.5 to 150 µg/mL | < 1 µg/mL | 12.5 to 150 µg/mL | < 1 µg/mL | 12.5 to 150 µg/mL | 12.5 to 150 µg/mL | 12.5 to 150 µg/mL | –
CCc1cc(C(=O)O)c(=O)[nH]c1-c1ccc(N2CCC(N)C2)cc1.O=C(O)C(F)(F)F (stereo not drawn) [Cpd 131, 6-[4-(3-aminopyrrolidin-1-yl)phenyl]-5-ethyl-2-oxo-1,2-dihydropyridine-3-carboxylic acid trifluoroacetate] | 12.5 to 150 µg/mL | – | 12.5 to 150 µg/mL | 3.5 to 12.5 µg/mL | 12.5 to 150 µg/mL | 12.5 to 150 µg/mL | 12.5 to 150 µg/mL | < 1 µg/mL
CCc1cc(C(=O)O)c(=O)[nH]c1-c1ccc(N2CCC(F)C2)cc1 (stereo not drawn) [Cpd 152, 5-ethyl-6-[4-(3-fluoropyrrolidin-1-yl)phenyl]-2-oxo-1,2-dihydropyridine-3-carboxylic acid] | 12.5 to 150 µg/mL (≈ 37.8 to 454 µM) | < 1 µg/mL | 3.5 to 12.5 µg/mL (≈ 10.6 to 37.8 µM) | 1 to 3.5 µg/mL (≈ 3.03 to 10.6 µM) | 3.5 to 12.5 µg/mL (≈ 10.6 to 37.8 µM) | 12.5 to 150 µg/mL (≈ 37.8 to 454 µM) | 12.5 to 150 µg/mL (≈ 37.8 to 454 µM) | –
CCc1cc(C(=O)O)c(=O)[nH]c1-c1ccc(N2CCC(N=[N+]=[N-])C2)cc1 (stereo not drawn) [Cpd 129, 6-[4-(3-azidopyrrolidin-1-yl)phenyl]-5-ethyl-2-oxo-1,2-dihydropyridine-3-carboxylic acid] | 12.5 to 150 µg/mL (≈ 35.4 to 424 µM) | < 1 µg/mL | 12.5 to 150 µg/mL (≈ 35.4 to 424 µM) | 1 to 3.5 µg/mL (≈ 2.83 to 9.9 µM) | 3.5 to 12.5 µg/mL (≈ 9.9 to 35.4 µM) | 12.5 to 150 µg/mL (≈ 35.4 to 424 µM) | 12.5 to 150 µg/mL (≈ 35.4 to 424 µM) | –
CCc1c(-c2ccc(N3CC[C@H](F)C3)cc2)[nH]c(=O)c(C(=O)O)c1O [Cpd 85, 5-ethyl-6-{4-[(3S)-3-fluoropyrrolidin-1-yl]phenyl}-4-hydroxy-2-oxo-1,2-dihydropyridine-3-carboxylic acid] | 12.5 to 150 µg/mL (≈ 36.1 to 433 µM) | < 1 µg/mL | 12.5 to 150 µg/mL (≈ 36.1 to 433 µM) | 12.5 to 150 µg/mL (≈ 36.1 to 433 µM) | 3.5 to 12.5 µg/mL (≈ 10.1 to 36.1 µM) | 12.5 to 150 µg/mL (≈ 36.1 to 433 µM) | 12.5 to 150 µg/mL (≈ 36.1 to 433 µM) | –

— US9650395B2, “Antibacterial compounds and methods for use” (PTC Therapeutics, Inc., priority 2011, dated 2017)
